Laboratory results taken from patent US8778890B2, “Leptin antagonist and methods of use” (Temple University—of the Commonwealth System of Higher …, priority 2009, dated 2014).
Read-outs that look alike come from different tables or passages of the source. One block for each molecule: values may come before it. Where a SMILES comes first, the peptide text is derived from it. Where no end group is shown, it is not given here. [ ]: non-standard residue; d: D form. NMeR = CN[C@@H](CCCNC(=N)N)C(=O)O; aThr = C[C@H](O)[C@H](N)C(=O)O; Nva = CCC[C@H](N)C(=O)O; Ahx = NCCCCCC(=O)O; βAla = NCCC(=O)O

Key:
[1] = tested on: ObR-positive cancer cells (brain and breast); format: cell-based
Experimental: The effect of the peptides of the invention on the proliferation of ObR-positive cancer cells (brain and breast) in the presence (IC50) or absence (EC50) of exogenous leptin protein (6 nM) is summarized in Table 1.

serum stability = format: in vitro ADME, mouse
Experimental: The stabilities of the peptides of amino acid sequence SEQ ID NO:4 and SEQ ID NO:49 were determined in 25% serum, and 100% serum, in terms of their half-lives. For serum stability studies, […] of an aqueous peptide stock solution, containing about 0.8 mg/mL peptide, were added to 2.5 mL of 25% or 100% aqueous pooled mouse serum. The peptide-serum mixture was thermostated at 37° C. After 0 min, 45 min, 60 min, 90 min, 2 h, 4 h, and 8 h, three 210 μL of the samples of peptides were taken and precipitated by the addition of 40 μL of 15% aqueous trichloroacetic acid. The samples were stored at 4° C. for 20 min and centrifuged. The supernatants were immediately frozen in dry-ice, and […], of each were analyzed on RP-HPLC and/or MALDI-MS.

[2] = organ toxicity testing after 14 days of treatment (Example 4); format: in vivo, mice and rats; conditions: any conditions
Experimental: (§1) Six weeks old Black/6 mice (mixed race) and F344 female rats were grown on regular lab chow and had access to food and water ad libidum. Treatment started at day 0, with four mice (2 males and 2 females) and 4 rats per group. The animals received the peptide of amino acid sequence SEQ ID NO:4 or physiological salt solution once daily. The mice and rats were dosed according to the following schedule: • Group 1: Mice, salt solution intraperitoneally; • Groups 2 and 3: Mice 0.1 mg/kg/day or 0.01 mg/kg/day peptide of amino acid sequence SEQ ID NO:4 intraperitoneally in 100 microliter salt solution; • Groups 4 and 5: Mice 1 mg/kg/day or 0.1 mg/kg/day peptide of amino acid sequence SEQ ID NO:4 subcutaneously (under the shoulder blade) in 100 microliter salt solution; • Groups 6 and 7: Mice 10 mg/kg/day or 1 mg/kg/day peptide of amino acid sequence SEQ ID NO:4 orally in 100 microliter salt solution; • Group 8: Rats, 10 microliter salt solution, intranasally; • Group 9: Rats. 0.1 mg/kg/day peptide of amino acid sequence SEQ ID NO:4 intranasally in 10 microliter salt solution.
After 14 days the animals were sacrificed and their liver, brain, kidneys and spleen were submitted for toxicity testing.

[3] = tested on: LN229 (glioma) cells (ObR-positive); format: cell-based; conditions: 2 h
From the text: (§2) Immunol. Methods 94:57-63).

[4] = tested on: MCF-7 breast cancer cells (ObR-positive); format: cell-based, human
From the text: as §2

[5] = weight gain of growing mice; format: in vivo
Experimental: as §1, with “solution. […]” for “solution.”
The therapeutic utility of full ObR antagonists was studied further by the ability of peptide of amino acid sequence SEQ ID NO:4 to increase the appetite of normal, growing mice as measured by accelerated weight gain and increased food intake upon various modes of peptide administration. […]

[6] = chronic and acute toxicity; format: in vivo, mice
Experimental: The peptide of amino acid sequence SEQ ID NO:4 was evaluated for chronic and acute toxicity in mice. Three female Black/6 mice received intraperitoneally either bolus 0.5 mg/kg or 2 mg/kg or 30 mg/kg peptide SEQ ID NO:4, or 0.5 mg/kg/day or 2 mg/kg/day peptide SEQ ID NO:4 over a 10 day period. Two days after termination of the experiments, the mice were weighed and sacrificed, and the livers, brains, spleens and kidneys were weighed.

[7] = tested on: two brain tumor cell lines; assay: leptin receptor antagonism in brain tumor cell lines; format: cell-based
[8] = tested on: ObR-positive cancer cells (brain and breast); format: cell-based; conditions: presence of exogenous leptin (6 nM)
[9] = mouse, in vivo, ip
[10] = 25% aqueous pooled mouse serum, 37° C., read-out: half-life in 25% serum
[11] = 100% pooled mouse serum, 37° C., read-out: half-life in 100% serum
[12] = ip bolus 0.5, 2 or 30 mg/kg, or 0.5 or 2 mg/kg/day for 10 days
[13] = mouse serum, read-out: half-life in mouse serum

Molecule: CCC[C@H](NC(=O)[C@H](CCC(=O)O)NC(=O)[C@@H](N)[C@@H](C)O)C(=O)N[C@H](C(=O)N[C@@H](C)C(=O)N[C@@H](CC(C)C)C(=O)N[C@@H](CO)C(=O)N[C@@H](CCCNC(=N)N)C(=O)NCCCCCC(N)=O)C(C)C [SEQ ID NO:4, Thr-Glu-Nva-Val-Ala-Leu-Ser-Arg-AcpNH2] (H-TE[Nva]VALSR[Ahx]-NH2)
EC50 [1]: > 1000 nM | half-life (serum stability; [10]): 20 min | half-life (serum stability; [11]): 5 min | toxic effects in liver, brain, kidneys and spleen [2]: No obvious toxic effects | IC50 [3]: 2 to 3 nM | IC50 ([4]; 2 h): 2 to 3 nM | necropsy of the major organs ([5]; C57BL/6 mice): no signs of toxicity | NOAEL ([6]; female, Black/6, mouse, in vivo, ip, intraperitoneal bolus, read-out: highest studied dose found not toxic, acute): 30 mg/kg | NOAEL at 240 h ([6]; female, Black/6, mouse, in vivo, ip, intraperitoneal, 10 days, read-out: highest studied dose found not toxic, chronic): 2 mg/kg/day | gross necropsy, treated versus non-treated [6, 12]: no alteration | liver, brain, spleen and kidney weights, treated versus non-treated [6, 12]: identical

Molecule: CCC[C@H](NC(=O)[C@H](CCCNC(=N)N)NC(=O)[C@H](CO)NC(=O)[C@H](CC(C)C)NC(=O)[C@H](C)NC(=O)[C@H](CCC)NC(=O)[C@H](CCC)NC(=O)[C@H](CCC(=O)O)NC(=O)[C@@H](N)[C@@H](C)O)C(N)=O [SEQ ID NO:47, Thr-Glu-Nva-Nva-Ala-Leu-Ser-Arg-NvaNH2] (H-TE[Nva][Nva]ALSR[Nva]-NH2)
EC50 [1]: > 1000 nM | half-life (serum stability; [13]): 8 min

Molecule: CCC[C@H](NC(=O)[C@H](CCCNC(=N)N)NC(=O)[C@H](CO)NC(=O)[C@H](CC(C)C)NC(=O)[C@H](C)NC(=O)[C@H](CCC)NC(=O)[C@H](CCC)NC(=O)[C@H](CCC(=O)O)NC(=O)[C@@H](NC(C)=O)[C@@H](C)O)C(N)=O [SEQ ID NO:48, AcNH-Thr-Glu-Nva-Nva-Ala-Leu-Ser-Arg-NvaNH2] (Ac-TE[Nva][Nva]ALSR[Nva]-NH2)
half-life (serum stability; [13]): 14 min | cell viability profile compared with the unprotected variant [4]: no change

Molecule: Alexa 680-labeled peptide of amino acid sequence SEQ ID NO:49: peptide of SEQ ID NO:49 labeled with the fluorescent dye Alexa 680 ([aThr]E[Nva]VALSR[Ahx]-NH2; not fully specified (N-terminus); printed as alloThr-Glu-Nva-Val-Ala-Leu-Ser-Arg-AcpNH2; also: Alexa 680 label, site not given here)
migration into further tissues, blood-brain barrier penetration [9]: migrated into the tail, limbs and the brain

B1: leptin: neurohormone, native ObR ligand; human leptin purchased from R&D Systems (protein, listed as Homo sapiens)
chain: VPIQKVQDDTKTLIKTIVTRINDISHTQSVSAKQRVTGLDFIPGLHPILSLSKMDQTLAVYQQVLTSLPSQNVLQIANDLENLRDLLHLLAFSKSCSLPQTSGLQKPESLDGVLEASLYSTEVVALSRLQGSLQDILQQLDVSPEC
reduction of normal weight gain compared to untreated mice ([5]; 0.1 mg/kg/day intraperitoneally, day 8): 5%

More lines, main results first:

EC50 [1]: > 1000 nM
Molecule: CCC[C@H](NC(=O)[C@H](CCC(=O)O)NC(=O)[C@@H](CO)NC(C)=O)C(=O)N[C@H](C(=O)N[C@@H](C)C(=O)N[C@@H](CC(C)C)C(=O)N[C@@H](CO)C(=O)N(C)[C@@H](CCCNC(=N)N)C(=O)NCCC(N)=O)C(C)C [SEQ ID NO:6, (D)-Ser-Glu-Nva-Val-Ala-Leu-Ser-N-MeArg-bAlaNH2] (Ac-[dS]E[Nva]VALS[NMeR][βAla]-NH2; N-terminus assumed)
pharmacology [1]: super antagonist | agonistic activity [7]: no agonistic activity | cell growth without stimulation with leptin protein [7]: does not influence cell growth | IC100, antagonistic activity against the leptin receptor ([7]; two brain tumor cell lines in vitro): 10 to 100 pM | IC100 [8]: <1 nM

EC50 [1]: > 1000 nM | half-life (serum stability; [10]): 40 min | half-life (serum stability; [11]): 10 min
Molecule: CCC[C@H](NC(=O)[C@H](CCC(=O)O)NC(=O)[C@@H](N)[C@H](C)O)C(=O)N[C@H](C(=O)N[C@@H](C)C(=O)N[C@@H](CC(C)C)C(=O)N[C@@H](CO)C(=O)N[C@@H](CCCNC(=N)N)C(=O)NCCCCCC(N)=O)C(C)C [SEQ ID NO:49, alloThr-Glu-Nva-Val-Ala-Leu-Ser-Arg-AcpNH2] (H-[aThr]E[Nva]VALSR[Ahx]-NH2)

EC50 [1]: > 500 nM
Molecule: CCC[C@H](NC(=O)[C@@H](N)CCC(=O)O)C(=O)N[C@H](C(=O)N[C@@H](C)C(=O)N[C@@H](CC(C)C)C(=O)N[C@@H](CO)C(=O)N[C@@H](CCCNC(=N)N)C(=O)NCCCCCC(N)=O)C(C)C [SEQ ID NO:51, Glu-Nva-Val-Ala-Leu-Ser-Arg-AcpNH2] (H-E[Nva]VALSR[Ahx]-NH2; N-terminus assumed)
pharmacology [1]: weak full | IC100 [8]: 100 nM
